For orientation: Km means the concentration of substrate that gives half-maximal velocity. Broadly, the inhibition is how much of the control response was suppressed.

The source of these data is patent US7785850B2, “Heterologus expression of trypanothione reductase from Leishmania donovani in a prokaryotic system” (priority 2004, dated 2010).

Assay [1] deals with T1, recombinant Leishmania donovani Trypanothione Reductase (Leishmania donovani, UniProt P39050, S2A).
T1 construct: GST (pET-41a vector fusion) (N, cleaved yes); made in house; host or cells: E. coli BL21(DE3), pET41a (clone LddTRpET41aDE3)
As to the kind of experiment: Enzyme assay, kinetics and substrate specificity of recombinant purified trypanothione reductase. It counts as biochemical. As to conditions: for Km / Vmax: TS2 varied at 50 μM NADPH, NADPH varied at 50 μM TS2. As to the method: Trypanothione reductase activity was routinely assayed spectrophotometrically at 340 nm, as previously described (25). The reaction mixture contained 20-100 mM HEPES pH 7.2-7.8, 20 μM-1 mM EDTA, 80-200 μM NADPH and 15-50 μM TS2. One unit of enzyme activity is defined as that amount of enzyme required to convert 1 μmol of NADPH to NADP per minute at 25° C. Protein was assayed according to the method of Bradford (1976) as supplied by Bangalore Genei with Bovine serum albumin as a standard. For comparative kinetic studies, assay was performed at 50 μM NADPH and at 5-100 μM concentrations of TS2 and at 50 μM TS2 and at 10-200 μM concentrations of NADPH.
Trypanothione reductase activity was routinely assayed spectrophotometrically at 340 nm, as previously described (25). The reaction mixture contained 100 mM HEPES pH 7.8, 20 μM EDTA, 80 μM NADPH and 50 μM TS2. The reaction was allowed to proceed for 5 min. and change in O.D. was monitored every after 30 sec. One unit of enzyme activity is defined, as that amount of enzyme required to convert 1 μmol of NADPH to NADP per minute at 25° C. The purified recombinant enzyme has a specific activity of 12.5 U/mg. protein. Purification procedure leads to 20 fold purification from the soluble content of E. coli lysate. The total yield was 16 mg/lit (FIG. 7 describes the fold purification of Recombinant Leishmania donovani Trypanothione Reductase). […] For comparative kinetic studies, assay was performed at 50 μM NADPH and varying concentration of TS2 (20, 40, 60, 80 & 100) and at 50 μM TS2 and varying concentration of NADPH (20, 40, 60, 80, 100 & 150).

The target of assay [2] is T2, recombinant Leishmania donovani Trypanothione Reductase (LDdTR) (Leishmania donovani, UniProt P39050, S2A).
T2 construct: GST (pET-41a vector fusion) (N, cleaved yes); made in house; host or cells: E. coli BL21(DE3), pET41a (clone LddTRpET41aDE3)
Nature of the assay: biochemical.
Procedure: Trypanothione reductase activity was routinely assayed spectrophotometrically at 340 nm, as previously described (25). The reaction mixture contained 100 mM HEPES pH 7.8, 20 μM EDTA, 80 μM NADPH and 50 μM TS2. The reaction was allowed to proceed for 5 min. and change in O.D. was monitored every after 30 sec. One unit of enzyme activity is defined, as that amount of enzyme required to convert 1 μmol of NADPH to NADP per minute at 25° C. […] For comparative kinetic studies, assay was performed at 50 μM NADPH and varying concentration of TS2 (20, 40, 60, 80 & 100) and at 50 μM TS2 and varying concentration of NADPH (20, 40, 60, 80, 100 & 150).

Take `NC(=O)C1=CN([C@@H]2O[C@H](COP(=O)(O)OP(=O)(O)OC[C@H]3O[C@@H](n4cnc5c(N)ncnc54)[C@H](OP(=O)(O)O)[C@@H]3O)[C@@H](O)[C@H]2O)C=CC1` [NADPH, Nicotinidine adenine dinucleotide phosphate]: in assay [1], the Km amounted to 20 µM and the Vmax is 125 μM/ml/min. Take “Oxidised Glutathione [oxidized glutathione]”: the “Substrate specificity (reduction catalyzed by purified protein)” value in assay [1] is reported as “did not catalyze reduction”. For the compound `N[C@@H](CCC(=O)N[C@H]1CSSC[C@H](NC(=O)CC[C@H](N)C(=O)O)C(=O)NCC(=O)NCCCNCCCCNC(=O)CNC1=O)C(=O)O` [TS2, Oxidized Trypanothione], in assay [1], the “Substrate specificity (reduction catalyzed by purified protein)” value is on record as “specifically catalyzed reduction”, the Km was 50 µM and the Vmax was determined as 200 μM/ml/min. In the case of `O.O.O.O=C([O-])[C@H]([O-])[C@@H]([O-])C(=O)[O-].O=C([O-])[C@H]([O-])[C@@H]([O-])C(=O)[O-].[K+].[K+].[Sb+3].[Sb+3]` [SbIII, Potassium antimony tartrate], the “Effect on TR activity (in words)” value in assay [2] (studied at 50 and 100 μM concentration) is on record as “profound effect on TR activity in comparison to SAG”. For the compound `Nc1nc(N)nc(Nc2ccc([As]=O)cc2)n1` (centres unmarked) [Melarsen Oxide, Melarsen oxide], the inhibition at 50 µM in assay [2] (read-out: Inhibition of TR) is greater than 95%.
